Results as given in patent US3966939A, “Novel 2-substituted 6,7-benzomorphan derivatives and salts thereof in analgesic compositions” (Sumitomo Chemical Company, Limited, priority 1972, dated 1976).

What was measured:
[1] = cited from earlier work
[2] = Abstinence syndrome / physical dependency on withdrawal after repeated administration (body weight decrease); type: in vivo, male rats of Wistar strain; parameters: key to Abstinence syndrome: +++: severe decrease (about 5% decrease); ++: moderate decrease; +: mild decrease; -: no decrease; details: rats; for Abstinence syndrome: subcutaneous twice a day, body weight decrease on the day after drug withdrawal; for physical dependency: orally or subcutaneously everyday for over one month
Method: (§1) On account of this addiction liability, these analgesics are severely restricted in a therapeutic use.
Note: Groups of male rats of Wistar strain (body weight, 150 g), each group consisting of 20 male rats, were subcutaneously given the test compound twice a day for 4 consecutive weeks. On the next day after drug withdrawal, the body weight was measured. The symbols have the following meanings: +++, severe decrease (about 5% decrease); ++, moderate decrease; +, mild decrease; -, no decrease.

[3] = Subcutaneous writhing test (acetic acid); type: in vivo, mice; details: for ED50: Mus musculus, sc, mice, subcutaneous 20 minutes before acetic acid, Litchfeld-Wilcoxon's method; for analgesic activity: in words; for analgesic action compared with pentazocine: subcutaneous writhing test, versus pentazocine
Method: […]. Note: The test was based on the specific anatagonism of the test compound to the typical syndrome produced by intraperitoneal injection of 0.6% aqueous acetic acid. The syndrome was characterized by intermittent contractions of the abdomen, twisting and turning of the trunk and extension of the hind legs. A group of 5 mice was used for each dose level. The test compound was administered subcutaneously 20 minutes before the injection of acetic acid. […] The ED50 value was calculated according to the Litchfeld-Wilcoxon's method.

[4] = Addiction / drug dependency in (long term) animal tests; type: in vivo
Text: Hitherto, many benzomorphan derivatives (e.g., phenazocine, pentazocine) have been developed as analgesic drugs but most of them have addiction and produce narcotic symptoms at their usual dosages.
as §1

| Structure (SMILES) | analgesic activity (known) ([1]; U.S. Pat. No. 3,138,603) | addiction liability (known) ([1]; prior benzomorphan derivatives) | Abstinence syndrome ([2]; 20 mg/kg/day for 4 weeks) | ED50 [3] [mg/kg] | analgesic activity [3] | analgesic action compared with pentazocine [3] | physical dependency [2] | Abstinence syndrome ([2]; 40 mg/kg/day for 4 weeks) | addiction in long term animal tests [4] |
| --- | --- | --- | --- | --- | --- | --- | --- | --- | --- |
| CC1C2Cc3ccc(O)cc3C1(C)CCN2C (stereo not drawn) [2'-Hydroxy-2,5,9-trimethyl-6,7-benzomorphan] | potent analgesic activity | show an addition liability | ++ |  |  |  |  |  |  |
| CC(C)SCCN1CCC2(C)c3cc(O)ccc3CC1C2C (stereo not drawn) [2'-Hydroxy-2-(β-isopropylthioethyl)-5,9-dimethyl-6,7-benzomorphan] |  |  |  | 3.6 | strong analgesic activity | much more potent analgesic action than pentazocine |  |  |  |
| CCC1C2Cc3ccc(O)cc3C1(CC)CCN2CCSC (stereo not drawn) [2'-Hydroxy-2-(β-methylthioethyl)-5,9-diethyl-6,7-benzomorphan] |  |  |  |  |  |  | did not produce any physical dependency | - | do not show addiction |
| CSCCN1CCC2(C)c3cc(O)ccc3CC1C2C (stereo not drawn) [2'-Hydroxy-2-(β-methylthioethyl)-5,9-dimethyl-6,7-benzomorphan] |  |  |  | 3.1 | strong analgesic activity | much more potent analgesic action than pentazocine | did not produce any physical dependency | - | do not show addiction |
| CCC12CCN(CCSC)C(Cc3ccc(O)cc31)C2 (stereo not drawn) [2'-Hydroxy-2-(β-methylthioethyl)-5-ethyl-6,7-benzomorphan] |  |  | - | 0.34 | strong analgesic activity | much more potent analgesic action than pentazocine | did not produce any physical dependency |  | do not show addiction |
